The results in this text go back to patent US9199989B2, “N—(imidazolidin-2-ylidene)quinoline derivatives as modulators of alpha 2 adrenergic receptors” (Allergan, Inc., priority 2011, dated 2015).

The assay concerns the target T1, Alpha 2C adrenergic receptor (Homo sapiens, UniProt P18825).
T1 construct: expressed in transfected cells
T1 sequence (P18825 1-462): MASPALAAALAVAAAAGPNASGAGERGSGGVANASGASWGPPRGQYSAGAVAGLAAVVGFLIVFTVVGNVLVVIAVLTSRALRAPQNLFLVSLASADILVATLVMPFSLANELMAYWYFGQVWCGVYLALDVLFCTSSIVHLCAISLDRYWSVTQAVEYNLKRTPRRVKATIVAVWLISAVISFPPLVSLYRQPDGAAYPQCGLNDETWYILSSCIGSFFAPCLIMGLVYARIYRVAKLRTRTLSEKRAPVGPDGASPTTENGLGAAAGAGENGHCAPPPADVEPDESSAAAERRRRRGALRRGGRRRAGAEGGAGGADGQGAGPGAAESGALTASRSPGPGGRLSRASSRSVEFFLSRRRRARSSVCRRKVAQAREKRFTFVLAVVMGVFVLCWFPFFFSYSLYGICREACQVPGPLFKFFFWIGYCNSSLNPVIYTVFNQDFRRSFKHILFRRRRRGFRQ
In words: RSAT (Receptor Selection and Amplification Technology) compound screening. It counts as cell-based. Conditions: for EC50: cells expressing the alpha 2C adrenergic receptor, receptor-mediated growth response, read-out: Intrinsic Activity EC50, Alpha 2C; for Intrinsic Activity (efficacy), Alpha 2C: relative efficacy compared to a standard full agonist. Here is the method:
Cells expressing each of the alpha 2 adrenergic receptors alone were incubated with the various compounds and a receptor-mediated growth response was measured. The compound's activity was expressed as its relative efficacy compared to a standard full agonist (see Table 2).

The term EC50 denotes the midpoint of the concentration-response curve. Turning to `c1ccc2c(N=C3NCCN3)ccnc2c1` [Compound 1, N-(imidazolidin-2-ylidene)quinolin-4-amine], the EC50 amounted to 17.4 nM and the “Intrinsic Activity (efficacy), Alpha 2C” value is on record as “(0.95)”.

In the case of `Clc1c(N=C2NCCN2)cnc2cccnc12` [Compound 2, 4-Chloro-N-(imidazolidin-2-ylidene)-1,5-naphthyridin-3-amine], the EC50 is 21 nM and the “Intrinsic Activity (efficacy), Alpha 2C” value is given as “(0.95)”.

For the molecule `Cc1c(N=C2NCCN2)cnc2ccccc12` [Compound 3, N-(imidazolidin-2-ylidene)-4-methylquinolin-3-amine], the EC50 worked out at 1650 nM and the “Intrinsic Activity (efficacy), Alpha 2C” value is recorded as “(0.21)”.

Turning to `Clc1c(N=C2NCCN2)cnc2ccccc12` [Compound 4, 4-Chloro-N-(imidazolidin-2-ylidene)quinolin-3-amine], the EC50 came out at 368 nM and the “Intrinsic Activity (efficacy), Alpha 2C” value is listed as “(0.66)”.

With `Brc1c(N=C2NCCN2)cnc2ccccc12` [Compound 5, 4-Bromo-N-(imidazolidin-2-ylidene)quinolin-3-amine], the EC50 came to 1530 nM and the “Intrinsic Activity (efficacy), Alpha 2C” value was “(0.17)”.

For the molecule `c1cnc2ncc(N=C3NCCN3)cc2n1` [Compound 6, N-(imidazolidin-2-ylidene)pyrido[2,3-b]pyrazin-7-amine], the EC50 turned out to be 4580 nM and the “Intrinsic Activity (efficacy), Alpha 2C” value was “(0.44)”.

Consider `Cc1c(N=C2NCCN2)cnc2nccnc12` [Compound 7, N-(imidazolidin-2-ylidene)-8-methylpyrido[2,3-b]pyrazin-7-amine], for which the EC50 was 311 nM and the “Intrinsic Activity (efficacy), Alpha 2C” value is reported as “(0.93)”.
